{"source": "patent US20160279164A1", "about": "“High-Molecular Weight Conjugate Of Resorcinol Derivatives” (Nippon Kayaku Kabushiki Kaisha, priority 2006, published 2016)", "test_system": "mouse colon cancer Colon26", "assay": "Anti-tumor effect on mice transplanted with the mouse colon cancer Colon26", "type": "in vivo", "settings": "5 consecutive days, female CDF1 mice", "from_the_text": "Tumor of mouse colon cancer, Colon26, maintained by serial subcutaneous subculture in BALB/cA mice, was minced into about 2-mm square blocks, and the blocks were transplanted subcutaneously on the dorsal part of a female CDF1 mice with a trocar. On the 7th day after tumor transplantation, the high-molecular weight conjugate of a resorcinol derivative (compound 1) of the present invention, and as a control, the included resorcinol derivative, 5-(2,4-dihydroxy-5-isopropyl-phenyl)-4-(4-methoxy-phenyl)-2,4-dihydro-[1,2,4]triazol-3-one), were administered intravenously to the mouse tail vein. Compound 1 of the present invention was dissolved in a 5% glucose injectable solution, and was administered once. The resorcinol derivative (the included compound) used as the control, was dissolved in DMSO, and TWEEN80 was added thereto, and then the mixture was diluted with a 5% glucose injectable solution. The dilution was administered once a day for 5 consecutive days. After the administration, the major diameter (L mm) and the minor diameter (W mm) of the tumor were measured regularly, and the tumor volume was calculated by the formula: (L×W^2)/2. Based on the tumor volume of the administration initiation day, the average relative tumor volume for each measurement day was determined (Table 1)."}
{"smiles": "COc1ccc(-n2c(-c3cc(C(C)C)c(O)cc3O)n[nH]c2=O)cc1", "note": "[Included compound, 5-(2,4-dihydroxy-5-isopropyl-phenyl)-4-(4-methoxy-phenyl)-2,4-dihydro-[1,2,4]triazol-3-one]", "values": [{"measurement": "average relative tumor volume", "setting": "day 0 after administration, 50 mg/kg/day i.v.", "value": 1.0}, {"measurement": "average relative tumor volume", "setting": "day 0 after administration, 100 mg/kg/day i.v.", "value": 1.0}, {"measurement": "average relative tumor volume", "setting": "day 2 after administration, 50 mg/kg/day i.v.", "value": 1.6}, {"measurement": "average relative tumor volume", "setting": "day 2 after administration, 100 mg/kg/day i.v.", "value": 1.1}, {"measurement": "average relative tumor volume", "setting": "day 3 after administration, 50 mg/kg/day i.v.", "value": 1.6}, {"measurement": "average relative tumor volume", "setting": "day 3 after administration, 100 mg/kg/day i.v.", "value": 0.7}, {"measurement": "average relative tumor volume", "setting": "day 5 after administration, 50 mg/kg/day i.v.", "value": 2.5}, {"measurement": "average relative tumor volume", "setting": "day 5 after administration, 100 mg/kg/day i.v.", "value": 1.0}, {"measurement": "average relative tumor volume", "setting": "day 7 after administration, 50 mg/kg/day i.v.", "value": 2.5}, {"measurement": "average relative tumor volume", "setting": "day 7 after administration, 100 mg/kg/day i.v.", "value": 3.3}, {"measurement": "average relative tumor volume", "setting": "day 9 after administration, 50 mg/kg/day i.v.", "value": 6.7}, {"measurement": "average relative tumor volume", "setting": "day 9 after administration, 100 mg/kg/day i.v.", "value": 5.0}, {"measurement": "average relative tumor volume", "setting": "day 12 after administration, 50 mg/kg/day i.v.", "value": 10}, {"measurement": "average relative tumor volume", "setting": "day 12 after administration, 100 mg/kg/day i.v.", "value": 11}, {"measurement": "average relative tumor volume", "setting": "day 14 after administration, 50 mg/kg/day i.v.", "value": 13}, {"measurement": "average relative tumor volume", "setting": "day 14 after administration, 100 mg/kg/day i.v.", "value": 12}]}
